Source: patent US20200069648A1, “HALOALLYLAMINE PYRAZOLE DERIVATIVE INHIBITORS OF LYSYL OXIDASES AND USES THEREOF” (Pharmaxis Ltd., priority 2017, published 2020)
Structures can show the parent of a compound that is named as a salt.

Tests used:
Human LOXL2 = target: T1, Human LOXL2 (Homo sapiens, UniProt Q9Y4K0); assay: LOXL2 amine oxidase inhibition, peroxidase-coupled Amplex Red assay; type: biochemical; details: 30 min preincubation at 37° C., putrescine substrate
T1 sequence (Q9Y4K0 26-774): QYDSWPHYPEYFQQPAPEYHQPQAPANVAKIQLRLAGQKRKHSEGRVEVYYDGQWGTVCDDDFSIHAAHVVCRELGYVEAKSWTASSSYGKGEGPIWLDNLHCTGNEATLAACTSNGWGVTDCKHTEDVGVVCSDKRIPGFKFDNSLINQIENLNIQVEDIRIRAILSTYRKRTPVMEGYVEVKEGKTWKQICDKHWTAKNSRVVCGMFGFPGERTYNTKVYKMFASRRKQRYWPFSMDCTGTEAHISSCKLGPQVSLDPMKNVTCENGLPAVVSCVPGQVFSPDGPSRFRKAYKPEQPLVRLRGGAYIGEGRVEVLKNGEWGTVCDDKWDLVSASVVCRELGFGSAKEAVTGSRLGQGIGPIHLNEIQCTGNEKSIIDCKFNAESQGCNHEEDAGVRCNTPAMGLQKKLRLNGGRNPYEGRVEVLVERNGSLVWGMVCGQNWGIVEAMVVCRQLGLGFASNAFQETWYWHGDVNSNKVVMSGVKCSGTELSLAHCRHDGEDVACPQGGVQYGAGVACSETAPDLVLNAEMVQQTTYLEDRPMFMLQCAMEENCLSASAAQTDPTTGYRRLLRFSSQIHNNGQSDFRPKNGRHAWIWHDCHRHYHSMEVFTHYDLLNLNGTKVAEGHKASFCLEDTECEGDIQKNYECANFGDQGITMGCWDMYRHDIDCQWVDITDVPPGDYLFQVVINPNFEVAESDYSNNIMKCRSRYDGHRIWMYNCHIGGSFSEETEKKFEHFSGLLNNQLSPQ
Procedure, shortened: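 Enzyme preincubated 30 min at 37 °C with compound (11-point curve) in 1.2 M urea, 50 mM borate pH 8.2 plus 1 μM mofegiline and 0.5 mM pargyline; putrescine at twice KM (10 mM for LOXL2), Amplex Red and HRP added. Fluorescence (565/590 nm) read every 2.5 min for 30 min; IC50 from kinetic slopes.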

Bovine LOX = target: T2, Bovine LOX (Bos taurus, UniProt P33072); assay: LOX amine oxidase inhibition, peroxidase-coupled Amplex Red assay; type: biochemical; details: 30 min preincubation at 37° C., putrescine substrate
T2 sequence (P33072 170-418): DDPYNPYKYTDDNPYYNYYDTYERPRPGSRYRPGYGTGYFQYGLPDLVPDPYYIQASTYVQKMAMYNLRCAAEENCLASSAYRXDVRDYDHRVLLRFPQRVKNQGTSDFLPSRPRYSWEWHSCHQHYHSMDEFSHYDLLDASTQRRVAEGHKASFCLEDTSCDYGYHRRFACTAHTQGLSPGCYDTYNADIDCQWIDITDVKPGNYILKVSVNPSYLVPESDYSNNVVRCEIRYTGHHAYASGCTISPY
Procedure, shortened: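 Bovine LOX in 1.2 M urea, 50 mM sodium borate pH 8.2 […]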

| SMILES | IC50 (Human LOXL2) [µM] | IC50 (Bovine LOX) [µM] |
| --- | --- | --- |
| CNS(=O)(=O)c1ccc(Cn2nc(C)c(C/C(F)=C/CN)c2C)c(C(F)(F)F)c1 [Compound 23, (Z)-4-((4-(4-amino-2-fluorobut-2-en-1-yl)-3,5-dimethyl-1H-pyrazol-1-yl)methyl)-N-methyl-3-(trifluoromethyl)benzenesulfonamide hydrochloride] | < 1 | < 10 |
| Cc1nn(Cc2ccc(S(C)(=O)=O)c(Cl)c2)c(C)c1C/C(F)=C/CN [Compound 24, (Z)-4-(1-(3-chloro-4-(methylsulfonyl)benzyl)-3,5-dimethyl-1H-pyrazol-4-yl)-3-fluorobut-2-en-1-amine hydrochloride] | < 1 | < 10 |
| Cc1nn(Cc2cc(F)c(S(=O)(=O)N(C)C)cc2F)c(C)c1C/C(F)=C/CN [Compound 25, (Z)-4-((4-(4-amino-2-fluorobut-2-en-1-yl)-3,5-dimethyl-1H-pyrazol-1-yl)methyl)-2,5-difluoro-N,N-dimethylbenzenesulfonamide hydrochloride] | < 1 | < 10 |
| CNS(=O)(=O)c1cc(F)c(Cn2nc(C)c(C/C(F)=C/CN)c2C)cc1F [Compound 26, (Z)-4-((4-(4-amino-2-fluorobut-2-en-1-yl)-3,5-dimethyl-1H-pyrazol-1-yl)methyl)-2,5-difluoro-N-methylbenzenesulfonamide hydrochloride] | < 1 | < 10 |
| CCOC(=O)c1c(Cc2ccc(S(=O)(=O)N(C)C)cc2)c(C)nn1C/C(F)=C/CN [Compound 27, (Z)-ethyl 1-(4-amino-2-fluorobut-2-enyl)-4-(4-(N,N-dimethylsulfamoyl)benzyl)-3-methyl-1H-pyrazole-5-carboxylate hydrochloride] | < 1 | < 10 |
| CCOC(=O)c1nn(C/C(F)=C/CN)c(C)c1Cc1ccc(S(=O)(=O)N(C)C)cc1 [Compound 28, (Z)-ethyl 1-(4-amino-2-fluorobut-2-enyl)-4-(4-(N,N-dimethylsulfamoyl)benzyl)-5-methyl-1H-pyrazole-3-carboxylate hydrochloride] | < 1 | < 10 |
| Cc1nn(C/C(F)=C/CN)c(C(=O)N(C)C)c1Cc1ccc(S(=O)(=O)N(C)C)cc1 [Compound 29, (Z)-1-(4-amino-2-fluorobut-2-enyl)-4-(4-(N,N-dimethylsulfamoyl)benzyl)-N,N,3-trimethyl-1H-pyrazole-5-carboxamide hydrochloride] | < 1 | < 10 |
| Cc1nn(C/C(F)=C/CN)c(C(=O)O)c1Cc1ccc(S(=O)(=O)N(C)C)cc1 [Compound 30, (Z)-1-(4-amino-2-fluorobut-2-enyl)-4-(4-(N,N-dimethylsulfamoyl)benzyl)-3-methyl-1H-pyrazole-5-carboxylic acid hydrochloride] | < 1 | > 10 |
| Cc1c(Cc2ccc(S(=O)(=O)N(C)C)cc2)c(C(=O)O)nn1C/C(F)=C/CN [Compound 31, (Z)-1-(4-amino-2-fluorobut-2-enyl)-4-(4-(N,N-dimethylsulfamoyl)benzyl)-5-methyl-1H-pyrazole-3-carboxylic acid hydrochloride] | < 1 | > 10 |
| Cc1c(Cc2ccc(S(=O)(=O)N(C)C)cc2)c(C(=O)N(C)C)nn1C/C(F)=C/CN [Compound 32, (Z)-1-(4-amino-2-fluorobut-2-enyl)-4-(4-(N,N-dimethylsulfamoyl)benzyl)-N,N,5-trimethyl-1H-pyrazole-3-carboxamide hydrochloride] | < 1 | < 10 |
| CC(C)c1nn(C/C(F)=C/CN)c(C(C)O)c1Cc1ccc(S(=O)(=O)N(C)C)c(Cl)c1 (stereo not shown) [Compound 59, (Z)-4-((1-(4-amino-2-fluorobut-2-en-1-yl)-5-(1-hydroxyethyl)-3-isopropyl-1H-pyrazol-4-yl)methyl)-2-chloro-N,N-dimethylbenzenesulfonamide hydrochloride] | < 1 | > 10 |
| CC(C)c1nn(C/C(F)=C/CN)c(C(C)C)c1Cc1ccc(S(=O)(=O)N(C)C)c(Cl)c1 [Compound 60, (Z)-4-((1-(4-amino-2-fluorobut-2-en-1-yl)-3,5-diisopropyl-1H-pyrazol-4-yl)methyl)-2-chloro-N,N-dimethylbenzenesulfonamide hydrochloride] | < 1 | < 10 |
| Cc1nn(C/C(F)=C/CN)c(C(=O)N(C)C)c1Cc1ccc(S(=O)(=O)N(C)C)c(Cl)c1 [Compound 61, (Z)-1-(4-amino-2-fluorobut-2-en-1-yl)-4-(3-chloro-4-(N,N-dimethylsulfamoyl)benzyl)-N,N,3-trimethyl-1H-pyrazole-5-carboxamide hydrochloride] | < 1 | > 10 |
| Cc1nn(C/C(F)=C/CN)c(C(=O)NC(C)(C)C)c1Cc1ccc(S(=O)(=O)N(C)C)c(Cl)c1 [Compound 62, (Z)-1-(4-amino-2-fluorobut-2-en-1-yl)-N-(tert-butyl)-4-(3-chloro-4-(N,N-dimethylsulfamoyl)benzyl)-3-methyl-1H-pyrazole-5-carboxamide hydrochloride] | < 1 | < 10 |
